Where a name gives a salt, the structure may show the parent alone. Read-outs that look alike come from different tables or passages of the source.
Tests used:
blood pressure [1] = assay: Experiment 3 Hypotensive action (maximum reduction in blood pressure); type: in vivo, Wistar-strain rats; conditions: read-out: BP: Reduction of blood pressure
male dd-strain mice = conditions: mouse, in vivo
blood pressure [2] = assay: Experiment 6 Dosage-reaction curve, spontaneously hypertensive rats; type: in vivo; conditions: SHR, 50 mg/kg oral; average of five rats
From the text: (§1) Experiment 6 Dosage-reaction curve: compared with betanidin
(§2) Five spontaneously hypertensive rats (16 weeks old) and five DOCA-sodium chloride loaded hypertensive rats (having been bred for 5 weeks after removing one kidney) were respectively used as one group.
(§3) As the test compounds, Compound 1 and betanidin sulfate, which is a known hypotensive agent, were used.
(§4) The test compounds were respectively dissolved in 0.3% (w/v) CMC aqueous solution and each of the resulting solutions was orally administered to the rats in a dose of 1 ml/100 g. The amounts of the solutions administered were equal per unit weight of rats and the concentrations thereof were varied according to the doses of the compounds indicated in Table 8. The maximum reduction in blood pressure after the administration was measured according to the method of tail artery plethysmography.

blood pressure [3] = assay: Experiment 6 Dosage-reaction curve, DOCA-NaCl loaded hypertensive rats; type: in vivo, DOCA-sodium chloride loaded hypertensive rats; conditions: average of five rats
From the text: as §1, §2, §3, §4

[4] = maximum reduction, oral, 5 mg per 100 g rat weight

SMILES	inhibition in vivo at 50 mg/kg (blood pressure [1]; [4])	Number of Death I.P. (male dd-strain mice)	Number of Death P.O. (male dd-strain mice)	inhibition in vivo at 50 mg/kg (blood pressure [1]; Rattus norvegicus, po)	maximum reduction in blood pressure (blood pressure [2])	maximum reduction in blood pressure (blood pressure [3]; 1.0 mg/kg oral)	maximum reduction in blood pressure (blood pressure [3]; 10 mg/kg oral)	maximum reduction in blood pressure (blood pressure [3]; 50 mg/kg oral)
CCOC(=O)n1c(=O)n(C2CCN(CC(=O)c3ccc(OC)c(OC)c3)CC2)c2ccccc21 [Compound 35, 1-[2-oxo-2-(3,4-dimethoxyphenyl)-1-ethyl]-4-(2-keto-3-ethoxycarbonyl-1-benzimidazolinyl)-piperidine]	> 11%	0	0					
O=c1[nH]c2ccccc2n1C1=CCN(CCc2ccc3c(c2)OCO3)CC1 [Compound 12, 1-[2-(3,4-methylenedioxyphenyl)-1-ethyl]-4-(2-keto-1-benzimidazolinyl)-1,2,5,6-tetrahydropyridine]	6 to 10%	0	0					
COc1ccc(C(OC(C)=O)C(C)N2CCC(n3c(=O)[nH]c4ccccc43)CC2)cc1OC (stereo not shown) [Compound 34, 1-[3-acetoxy-3-(3,4-dimethoxyphenyl)-2-propyl]-4-(2-keto-1-benzimidazolinyl)-piperidine]		0	0	> 11%				
CCOc1nc2ccccc2n1C1CCN(CC(O)c2ccc3c(c2)OCO3)CC1 (stereo not shown) [Compound 11, 1-[2-hydroxy-2-(3,4-methylenedioxyphenyl)-1-ethyl]-4-(2-ethoxy-1-benzimidazolinyl)-piperidine]	6 to 10%	0	0					
CN=C(NC)NCc1ccccc1 [Betanidin sulfate, betanidin sulfate]					-40 mmHg	-25 mmHg	-34 mmHg	-58 mmHg
COc1ccc(C(OC(C)=O)C(C)N2CCC(n3c(=O)n(C(C)=O)c4ccccc43)CC2)cc1OC (stereo not shown) [Compound 32, 1-[3-acetoxy-3-(3,4-dimethoxyphenyl)-2-propyl]-4-(3-acetyl-2-keto-1-benzimidazolinyl)-piperidine]	> 11%	0	0					
